Experimental data published in article PMC2033785, “High-affinity binding sites for gastrin-releasing peptide on human colorectal cancer tissue but not uninvolved mucosa” (British Journal of Cancer, 1995).
No end group written: not given here.

Experiments:
[1] = test system: mouse colon cancer cell line MC26; design: method as in Narayan et al., 1990; conditions: [3H]thymidine incorporation and MTT assays; ref Narayan et al., 1990; cited from earlier work
[2] = test system: human colorectal cancers; design: method as in Radulovic et al., 1992; conditions: ref Radulovic et al., 1992; cited from earlier work
[3] = test system: bombesin binding sites on human colorectal cancer tissue (GRP-preferring subtype); experiment: Radioligand displacement binding on human colorectal cancer membranes; conditions: for Radioligand displacement achieved over the concentration range: [125I]Tyr4-BBS; for Radioligand displacement achieved over the concentration range / Relative affinity for the binding site (GRP, BBS >> NMB): five binding site-positive tumours; for Relative affinity for the binding site (GRP, BBS >> NMB): displacement of [125I]Tyr4-bombesin
[4] = test system: matched mucosa; design: method as in Radulovic et al., 1992; conditions: ref Radulovic et al., 1992; cited from earlier work
[5] = competitor 1 x 10-11 to 1 x 10^-6 M

Row | Substance | Effect on growth [1] | Percentage of human colorectal cancers expressing bombesin binding sites [2] [%] | Radioligand displacement achieved over the concentration range [3, 5] | Relative affinity for the binding site (GRP, BBS >> NMB) [3] | Matched mucosa binding site positive [4] | IC50 for displacement of [125I]Tyr4-BBS ([3]; membrane preparations, approximately 200 pM radioligand, competitor 1 x 10-11 to 1 x 10^-6 M, six tubes per point, mean (± s.e.m.) of the five binding site-positive cancers) | 50% displacement of specific binding: number of tumours in which achieved ([3]; of the five binding site-positive tumours, competitor 1 x 10-11 to 1 x 10^-6 M)
1 | bombesin [BBS] | stimulated growth | 40 | Full radioligand displacement was achieved | GRP, BBS >> NMB | none of the matched mucosa were binding site positive | – | –
2 | gastrin-releasing peptide (VPLPAGGGTVLTKMYPRGNHWAVGHLM; ends and bridges not checked; UniProt P07492 24-50, looked up) [GRP, mammalian bombesin-like peptide (Bachem)] | – | – | Full radioligand displacement was achieved | GRP, BBS >> NMB | – | – | –
3 | neuromedin B [NMB] | – | – | – | GRP, BBS >> NMB | – | > lOOO | only achieved in two of the five binding site-positive tumours
